Assay results published in PubChem BioAssay (NCI).
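Dose response: 5 concentrations. Exposure: 48 h. Format: 96-well plates. Endpoint: linear interpolation; highest concentration if not reached. Abbreviation: GI50, concentration required for 50% inhibition of growth. TGI marks complete inhibition of growth.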

How the values were obtained:
Test in all cases: inhibition of tumour cell growth, NCI panel, 48 h
NCI-H522 lung = tested on: NCI-H522 lung
SF-268 CNS = tested on: SF-268 CNS
SN12C renal = tested on: SN12C renal
SNB-75 CNS = tested on: SNB-75 CNS
TK-10 renal = tested on: TK-10 renal
LOX IMVI melanoma = tested on: LOX IMVI melanoma
OVCAR-5 ovarian = tested on: OVCAR-5 ovarian
MALME-3M melanoma = tested on: MALME-3M melanoma
EKVX NSCLC = tested on: EKVX NSCLC
UO-31 renal = tested on: UO-31 renal
HCC-2998 colon = tested on: HCC-2998 colon
SK-MEL-5 melanoma = tested on: SK-MEL-5 melanoma
RPMI-8226 leukemia = tested on: RPMI-8226 leukemia
RXF 393 renal = tested on: RXF 393 renal
MDA-MB-435 = tested on: MDA-MB-435
OVCAR-4 ovarian = tested on: OVCAR-4 ovarian
CCRF-CEM leukemia = tested on: CCRF-CEM leukemia
SF-295 CNS = tested on: SF-295 CNS
OVCAR-8 ovarian = tested on: OVCAR-8 ovarian
HCT-116 colon = tested on: HCT-116 colon
DU-145 prostate = tested on: DU-145 prostate
UACC-257 melanoma = tested on: UACC-257 melanoma
KM12 colon = tested on: KM12 colon
SK-MEL-28 melanoma = tested on: SK-MEL-28 melanoma
SW-620 colon = tested on: SW-620 colon
SK-MEL-2 melanoma = tested on: SK-MEL-2 melanoma
SNB-19 CNS = tested on: SNB-19 CNS
U251 CNS = tested on: U251 CNS
M14 melanoma = tested on: M14 melanoma
NCI-H23 lung = tested on: NCI-H23 lung
MOLT-4 leukemia = tested on: MOLT-4 leukemia
HL-60(TB) leukemia = tested on: HL-60(TB) leukemia
PC-3 prostate = tested on: PC-3 prostate
BT-549 breast = tested on: BT-549 breast
MDA-MB-231 breast = tested on: MDA-MB-231 breast
CAKI-1 renal = tested on: CAKI-1 renal
K-562 leukemia = tested on: K-562 leukemia
NCI-H226 lung = tested on: NCI-H226 lung
ACHN renal = tested on: ACHN renal
SF-539 CNS = tested on: SF-539 CNS
UACC-62 melanoma = tested on: UACC-62 melanoma
HCT-15 colon = tested on: HCT-15 colon
A549 NSCLC = tested on: A549 NSCLC
NCI/ADR-RES ovarian = tested on: NCI/ADR-RES ovarian
T-47D breast = tested on: T-47D breast
IGROV1 ovarian = tested on: IGROV1 ovarian
A498 renal = tested on: A498 renal
NCI-H460 lung = tested on: NCI-H460 lung
OVCAR-3 ovarian = tested on: OVCAR-3 ovarian
HT29 colon = tested on: HT29 colon
HOP-62 NSCLC = tested on: HOP-62 NSCLC
HS 578T breast = tested on: HS 578T breast
SK-OV-3 ovarian = tested on: SK-OV-3 ovarian
SR leukemia = tested on: SR leukemia
HOP-92 NSCLC = tested on: HOP-92 NSCLC
COLO 205 colon = tested on: COLO 205 colon
786-0 renal = tested on: 786-0 renal

For `C=CCOC1=CC(=O)c2ccccc2C1=O`, the GI50 (NCI-H522 lung) was 2.05 µM, the TGI (NCI-H522 lung) was 3.9 µM and the GI50 (SF-268 CNS) was 4.21 µM. The TGI (SF-268 CNS) was 14.5 µM, the GI50 (SN12C renal) was 2.75 µM and the TGI (SN12C renal) was 6.45 µM. For the same molecule, the GI50 (SNB-75 CNS) was 2.11 µM, the TGI (SNB-75 CNS) was 4.08 µM and the GI50 (TK-10 renal) was 15.4 µM. It also gave a TGI (TK-10 renal) of 28.9 µM, a GI50 (LOX IMVI melanoma) of 1.71 µM and a TGI (LOX IMVI melanoma) of 3.65 µM. For the same molecule, the GI50 (OVCAR-5 ovarian) was 2.38 µM, the TGI (OVCAR-5 ovarian) was 5.46 µM and the GI50 (MALME-3M melanoma) was 1.89 µM. The TGI (MALME-3M melanoma) was 3.54 µM, the GI50 (EKVX NSCLC) was 4.75 µM and the TGI (EKVX NSCLC) was 26.9 µM. It also gave a GI50 (UO-31 renal) of 2.25 µM, a TGI (UO-31 renal) of 7.4 µM and a GI50 (HCC-2998 colon) of 8.59 µM. The TGI (HCC-2998 colon) was 21.9 µM, the GI50 (SK-MEL-5 melanoma) was 1.63 µM and the TGI (SK-MEL-5 melanoma) was 3.01 µM. For the same molecule, the GI50 (RPMI-8226 leukemia) was 3.2 µM, the GI50 (RXF 393 renal) was 2.45 µM and the TGI (RXF 393 renal) was 6.03 µM. The GI50 (MDA-MB-435) was 1.94 µM, the TGI (MDA-MB-435) was 3.64 µM and the GI50 (OVCAR-4 ovarian) was 1.57 µM. It also gave a TGI (OVCAR-4 ovarian) of 2.95 µM, a GI50 (CCRF-CEM leukemia) of 4.37 µM and a TGI (CCRF-CEM leukemia) of 41.1 µM. It also gave a GI50 (SF-295 CNS) of 2.12 µM, a TGI (SF-295 CNS) of 4.75 µM and a GI50 (OVCAR-8 ovarian) of 3.37 µM. It also gave a TGI (OVCAR-8 ovarian) of 12.9 µM, a GI50 (HCT-116 colon) of 2.68 µM and a TGI (HCT-116 colon) of 6.69 µM. It also gave a GI50 (DU-145 prostate) of 2.11 µM, a TGI (DU-145 prostate) of 3.72 µM and a GI50 (UACC-257 melanoma) of 1.66 µM. For the same molecule, the TGI (UACC-257 melanoma) was 3.72 µM, the GI50 (KM12 colon) was 3.23 µM and the TGI (KM12 colon) was 9.26 µM. For the same molecule, the GI50 (SK-MEL-28 melanoma) was 2.38 µM, the TGI (SK-MEL-28 melanoma) was 4.44 µM and the GI50 (SW-620 colon) was 2.31 µM. For the same molecule, the TGI (SW-620 colon) was 4.84 µM, the GI50 (SK-MEL-2 melanoma) was 2.34 µM and the TGI (SK-MEL-2 melanoma) was 4.46 µM. It also gave a GI50 (SNB-19 CNS) of 12.9 µM, a TGI (SNB-19 CNS) of 29.2 µM and a GI50 (U251 CNS) of 2.71 µM. It also gave a TGI (U251 CNS) of 6.65 µM, a GI50 (M14 melanoma) of 2.11 µM and a TGI (M14 melanoma) of 4.35 µM. For the same molecule, the GI50 (NCI-H23 lung) was 1.76 µM, the TGI (NCI-H23 lung) was 3.41 µM and the GI50 (MOLT-4 leukemia) was 5.36 µM. For the same molecule, the TGI (MOLT-4 leukemia) was 40.4 µM, the GI50 (HL-60(TB) leukemia) was 2.75 µM and the TGI (HL-60(TB) leukemia) was 6.61 µM. The GI50 (PC-3 prostate) was 4.29 µM, the TGI (PC-3 prostate) was 24.5 µM and the GI50 (BT-549 breast) was 11.1 µM. The TGI (BT-549 breast) was 23.2 µM, the GI50 (MDA-MB-231 breast) was 5.27 µM and the TGI (MDA-MB-231 breast) was over 100 µM. The GI50 (CAKI-1 renal) was 15.8 µM, the TGI (CAKI-1 renal) was 68.7 µM and the GI50 (K-562 leukemia) was 3.62 µM. It also gave a TGI (K-562 leukemia) of 16.5 µM, a GI50 (NCI-H226 lung) of 1.88 µM and a TGI (NCI-H226 lung) of 4.12 µM. It also gave a GI50 (ACHN renal) of 3.23 µM, a TGI (ACHN renal) of 11.9 µM and a GI50 (SF-539 CNS) of 2.37 µM. For the same molecule, the TGI (SF-539 CNS) was 6.01 µM, the GI50 (UACC-62 melanoma) was 2.01 µM and the TGI (UACC-62 melanoma) was 4.05 µM. The GI50 (HCT-15 colon) was 2.1 µM, the TGI (HCT-15 colon) was 4.64 µM and the GI50 (A549 NSCLC) was 2.12 µM. For the same molecule, the TGI (A549 NSCLC) was 4.85 µM, the GI50 (NCI/ADR-RES ovarian) was 2.68 µM and the TGI (NCI/ADR-RES ovarian) was 7 µM. It also gave a GI50 (T-47D breast) of 2.52 µM, a TGI (T-47D breast) of 7.85 µM and a GI50 (IGROV1 ovarian) of 4.34 µM. It also gave a TGI (IGROV1 ovarian) of 13.9 µM, a GI50 (A498 renal) of 1.42 µM and a TGI (A498 renal) of 19.8 µM. It also gave a GI50 (NCI-H460 lung) of 11.6 µM, a TGI (NCI-H460 lung) of 31.1 µM and a GI50 (OVCAR-3 ovarian) of 2.51 µM. The TGI (OVCAR-3 ovarian) was 5.44 µM, the GI50 (HT29 colon) was 2.39 µM and the TGI (HT29 colon) was 5.53 µM. The GI50 (HOP-62 NSCLC) was 1.82 µM, the TGI (HOP-62 NSCLC) was 3.43 µM and the GI50 (HS 578T breast) was 4.58 µM. The TGI (HS 578T breast) was 43.2 µM, the GI50 (SK-OV-3 ovarian) was 3.59 µM and the TGI (SK-OV-3 ovarian) was 12.3 µM. The GI50 (SR leukemia) was 2.24 µM, the TGI (SR leukemia) was 7.61 µM and the GI50 (HOP-92 NSCLC) was 4.42 µM. For the same molecule, the TGI (HOP-92 NSCLC) was 15.4 µM, the GI50 (COLO 205 colon) was 1.7 µM and the TGI (COLO 205 colon) was 3.29 µM. The GI50 (786-0 renal) was 4.88 µM and the TGI (786-0 renal) was 15.6 µM.
